# Columns and labels:
# [1] = in vitro; conditions: human, PBMC
# Description: Cytotoxicity against human PBMC after 7 days by sulforhodamine B assay
# [2] = test system: Human immunodeficiency virus 1; experiment: microbe, parasite or virus in culture; conditions: Human immunodeficiency virus 1, 168 h
# Description: Antiviral activity against HIV1 infected in human PBMC assessed as inhibition of viral p24 antigen production after 7 days by ELISA
# [3] = physchem; conditions: octanol/water
# Description: Lipophilicity, log P of the compound
SMILES,IC50 [2],logP [3],CC50 at 168 h [1]
CC(C)CCOC(=O)OC[C@H]1O[C@@H](n2ccc(N)nc2=O)CS1,1.27 µM,-0.15,3330 µM
CCCOC(=O)OC[C@H]1O[C@@H](n2ccc(N)nc2=O)CS1,0.3 µM,0.2,3330 µM
CCOC(=O)OC[C@H]1O[C@@H](n2ccc(N)nc2=O)CS1,0.2 µM,-0.31,3000 µM
CCCCCCOC(=O)OC[C@H]1O[C@@H](n2ccc(N)nc2=O)CS1,0.25 µM,1.57,857 µM

# Now from value to compound, other results behind:
IC50 [2],logP [3],SMILES,CC50 at 168 h [1]
0.065 µM,1.23,CCCCCOC(=O)OC[C@H]1O[C@@H](n2ccc(N)nc2=O)CS1,1290 µM
0.2 µM,1.72,CCCCCCCCOC(=O)OC[C@H]1O[C@@H](n2ccc(N)nc2=O)CS1,450 µM
0.2 µM,0.86,CCCCOC(=O)OC[C@H]1O[C@@H](n2ccc(N)nc2=O)CS1,4500 µM

# Source: ChEMBL document CHEMBL1152525, “Synthesis and anti-HIV activity of novel 2',3'-dideoxy-3'-thiacytidine prodrugs” (Bioorg Med Chem, 2009)
